Molecular target: unphosphorylated-BTK kinase domain (UP-BTK), GST-tagged human BTK (389-659aa) (Homo sapiens (Human), UniProt Q06187)
Experiment: BTK kinase Lanthascreen binding assay
Conditions: unphosphorylated-BTK kinase domain, 60 minutes incubation, 50 nM Tracer 236; pIC50 = negative log of the IC50 in molar
In short: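 Tracer-displacement binding assay against the non-phosphorylated enzyme, read by Lanthascreen. Reported: pIC50.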

unphosphorylated-BTK kinase domain (UP-BTK), GST-tagged human BTK (389-659aa), sequence (Q06187 389-659): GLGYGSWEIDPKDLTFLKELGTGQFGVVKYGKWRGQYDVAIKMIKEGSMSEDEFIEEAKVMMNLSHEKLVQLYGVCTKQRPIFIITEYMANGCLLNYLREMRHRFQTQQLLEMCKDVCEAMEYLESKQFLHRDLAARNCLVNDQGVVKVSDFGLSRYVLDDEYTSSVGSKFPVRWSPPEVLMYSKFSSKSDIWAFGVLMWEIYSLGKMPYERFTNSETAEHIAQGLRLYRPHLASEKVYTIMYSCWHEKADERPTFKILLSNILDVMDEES

BTK_I_binding pIC50 | Compound
6.7 | COc1ccccc1Oc1ccc(N2C(=O)Nc3c(C(=O)NC4CCCN(C)C4)sc4nccc2c34)c(C)c1 (centres unmarked) [Example 907, 5-(4-(2-Methoxyphenoxy)-2-methylphenyl)-N-(1-methylpiperidin-3-yl)-4-oxo-4,5-dihydro-3H-1-thia-3,5,8-triazaacenaphthylene-2-carboxamide]
6.7 | Cc1cc(Oc2ccccc2)ccc1N1C(=O)Nc2c(C(=O)N[C@@H]3CCCN(C(=O)CN4CCC4)C3)sc3nccc1c23 [Example 908, (R)—N-(1-(2-(Azetidin-1-yl)acetyl)piperidin-3-yl)-5-(2-methyl-4-phenoxyphenyl)-4-oxo-4,5-dihydro-3H-1-thia-3,5,8-triazaacenaphthylene-2-carboxamide]
6.7 | O=C(NC1CCOCC1)c1sc2nccc3c2c1NC(=O)N3c1ccc(Oc2ccccc2)cc1 [Example 909, 4-Oxo-5-(4-phenoxyphenyl)-N-(tetrahydro-2H-pyran-4-yl)-4,5-dihydro-3H-1-thia-3,5,8-triazaacenaphthylene-2-carboxamide]
6.7 | CN1CC[C@@H](NC(=O)c2sc3nccc4c3c2NC(=O)N4c2ccc(Oc3ccccc3)cc2)C1 [Example 910, (R)—N-(1-Methylpyrrolidin-3-yl)-4-oxo-5-(4-phenoxyphenyl)-4,5-dihydro-3H-1-thia-3,5,8-triazaacenaphthylene-2-carboxamide]
6.6 | O=C(N[C@@H]1CCNC1)c1sc2nccc3c2c1NC(=O)N3c1ccc(Oc2ccccc2)cc1 [Example 911, (R)-4-Oxo-5-(4-phenoxyphenyl)-N-(pyrrolidin-3-yl)-4,5-dihydro-3H-1-thia-3,5,8-triazaacenaphthylene-2-carboxamide]
6.5 | Cc1cc(OC(C)C)ccc1N1C(=O)Nc2c(C(=O)N[C@@H]3CCCN(C(=O)/C=C/CN(C)C)C3)sc3nccc1c23 [Example 913, (R,E)-N-(1-(4-(Dimethylamino)but-2-enoyl)piperidin-3-yl)-5-(4-isopropoxy-2-methylphenyl)-4-oxo-4,5-dihydro-3H-1-thia-3,5,8-triazaacenaphthylene-2-carboxamide]
6.5 | O=C(N[C@@H]1CCN(C(=O)c2ccccc2)C1)c1sc2nccc3c2c1NC(=O)N3c1ccc(Oc2ccccc2)cc1 [Example 914, (R)—N-(1-Benzoylpyrrolidin-3-yl)-4-oxo-5-(4-phenoxyphenyl)-4,5-dihydro-3H-1-thia-3,5,8-triazaacenaphthylene-2-carboxamide]
6.5 | O=C(N[C@@H]1CCCNC1)c1sc2nccc3c2c1NC(=O)N3c1ccc(Oc2ccccc2)cn1 [Example 915, (R)-4-Oxo-5-(5-phenoxypyridin-2-yl)-N-(piperidin-3-yl)-4,5-dihydro-3H-1-thia-3,5,8-triazaacenaphthylene-2-carboxamide]
6.4 | Cc1cc(Oc2ccccc2)ccc1N1C(=O)Nc2c(C(=O)NC3CCN(C(=O)/C(C#N)=C/C4CC4)CC3)sc3nccc1c23 [Example 916, (E)-N-(1-(2-Cyano-3-cyclopropylacryloyl)piperidin-4-yl)-5-(2-methyl-4-phenoxyphenyl)-4-oxo-4,5-dihydro-3H-1-thia-3,5,8-triazaacenaphthylene-2-carboxamide]
6.4 | COc1ccccc1Oc1ccc(N2C(=O)Nc3c(C(=O)NC4CCNCC4)sc4nccc2c34)c(C)c1 [Example 917, 5-(4-(2-Methoxyphenoxy)-2-methylphenyl)-4-oxo-N-(piperidin-4-yl)-4,5-dihydro-3H-1-thia-3,5,8-triazaacenaphthylene-2-carboxamide]
6.4 | COc1ccccc1Oc1ccc(N2C(=O)Nc3c(C(=O)NC4CCN(C)CC4)sc4nccc2c34)c(C)c1 [Example 918, 5-(4-(2-Methoxyphenoxy)-2-methylphenyl)-N-(1-methylpiperidin-4-yl)-4-oxo-4,5-dihydro-3H-1-thia-3,5,8-triazaacenaphthylene-2-carboxamide]
6.4 | Cc1cc(OC2CCCC2)ccc1N1C(=O)Nc2c(C(=O)N[C@@H]3CCCNC3)sc3nccc1c23 [Example 919, (R)-5-(4-(cyclopentyloxy)-2-methylphenyl)-4-oxo-N-(piperidin-3-yl)-4,5-dihydro-3H-1-thia-3,5,8-triazaacenaphthylene-2-carboxamide]
6.4 | CN1CCC(NC(=O)c2sc3nccc4c3c2NC(=O)N4c2ccc(Oc3ccccc3)cc2)CC1 [Example 920, N-(1-Methylpiperidin-4-yl)-4-oxo-5-(4-phenoxyphenyl)-4,5-dihydro-3H-1-thia-3,5,8-triazaacenaphthylene-2-carboxamide]
6.3 | Cc1cc(Oc2ccccc2)ccc1N1C(=O)Nc2c(C(=O)NC3CCN(C(=O)/C(C#N)=C/C(C)(C)C)CC3)sc3nccc1c23 [Example 921, (E)-N-(1-(2-Cyano-4,4-dimethylpent-2-enoyl)piperidin-4-yl)-5-(2-methyl-4-phenoxyphenyl)-4-oxo-4,5-dihydro-3H-1-thia-3,5,8-triazaacenaphthylene-2-carboxamide]
6.3 | O=C(N[C@@H]1CCCNC1)c1sc2nccc3c2c1NC(=O)N3c1ccc(Oc2ccccc2)nc1 [Example 922, (R)-4-Oxo-5-(6-phenoxypyridin-3-yl)-N-(piperidin-3-yl)-4,5-dihydro-3H-1-thia-3,5,8-triazaacenaphthylene-2-carboxamide]
6.3 | CNCC(=O)N1CCC[C@@H](NC(=O)c2sc3nccc4c3c2NC(=O)N4c2ccc(OC(C)C)cc2C)C1 [Example 923, (R)-5-(4-Isopropoxy-2-methylphenyl)-N-(1-(2-(methylamino)acetyl)piperidin-3-yl)-4-oxo-4,5-dihydro-3H-1-thia-3,5,8-triazaacenaphthylene-2-carboxamide]
6.3 | CC(=O)N1CC[C@H](NC(=O)c2sc3nccc4c3c2NC(=O)N4c2ccc(Oc3ccccc3)cc2)C1 [Example 924, (S)—N-(1-Acetylpyrrolidin-3-yl)-4-oxo-5-(4-phenoxyphenyl)-4,5-dihydro-3H-1-thia-3,5,8-triazaacenaphthylene-2-carboxamide]
6.3 | O=C(N[C@@H]1CCN(Cc2ccccc2)C1)c1sc2nccc3c2c1NC(=O)N3c1ccc(Oc2ccccc2)cc1 [Example 925, (R)—N-(1-Benzylpyrrolidin-3-yl)-4-oxo-5-(4-phenoxyphenyl)-4,5-dihydro-3H-1-thia-3,5,8-triazaacenaphthylene-2-carboxamide]
6.2 | O=C(NC1CCNCC1)c1sc2nccc3c2c1NC(=O)N3c1ccc(Oc2ccccc2)cc1 [Example 926, 4-oxo-5-(4-phenoxyphenyl)-N-(piperidin-4-yl)-4,5-dihydro-3H-1-thia-3,5,8-triazaacenaphthylene-2-carboxamide]
6.2 | O=C(NCCN1CCCC1)c1sc2nccc3c2c1NC(=O)N3c1ccc(Oc2ccccc2)cc1 [Example 927, 4-Oxo-5-(4-phenoxyphenyl)-N-(2-(pyrrolidin-1-yl)ethyl)-4,5-dihydro-3H-1-thia-3,5,8-triazaacenaphthylene-2-carboxamide]
6.2 | O=C(NCCN1CCNCC1)c1sc2nccc3c2c1NC(=O)N3c1ccc(Oc2ccccc2)cc1 [Example 928, 4-Oxo-5-(4-phenoxyphenyl)-N-(2-(piperazin-1-yl)ethyl)-4,5-dihydro-3H-1-thia-3,5,8-triazaacenaphthylene-2-carboxamide]
6.1 | C=CC(=O)N1CCC(NC(=O)c2sc3nccc4c3c2NC(=O)N4c2ccc(Oc3ccccc3)cc2C)CC1 [Example 929, N-(1-Acryloylpiperidin-4-yl)-5-(2-methyl-4-phenoxyphenyl)-4-oxo-4,5-dihydro-3H-1-thia-3,5,8-triazaacenaphthylene-2-carboxamide]
6.1 | CN1CC[C@H](NC(=O)c2sc3nccc4c3c2NC(=O)N4c2ccc(Oc3ccccc3)cc2)C1 [Example 931, (S)—N-(1-Methylpyrrolidin-3-yl)-4-oxo-5-(4-phenoxyphenyl)-4,5-dihydro-3H-1-thia-3,5,8-triazaacenaphthylene-2-carboxamide]
6.1 | O=C(NCCN1CCCCC1)c1sc2nccc3c2c1NC(=O)N3c1ccc(Oc2ccccc2)cc1 [Example 932, 4-Oxo-5-(4-phenoxyphenyl)-N-(2-(piperidin-1-yl)ethyl)-4,5-dihydro-3H-1-thia-3,5,8-triazaacenaphthylene-2-carboxamide]
6.1 | O=C(NCCN1CCOCC1)c1sc2nccc3c2c1NC(=O)N3c1ccc(Oc2ccccc2)cc1 [Example 933, N-(2-Morpholinoethyl)-4-oxo-5-(4-phenoxyphenyl)-4,5-dihydro-3H-1-thia-3,5,8-triazaacenaphthylene-2-carboxamide]
6.0 | CN1CCN(CCNC(=O)c2sc3nccc4c3c2NC(=O)N4c2ccc(Oc3ccccc3)cc2)CC1 [Example 935, N-(2-(4-Methylpiperazin-1-yl)ethyl)-4-oxo-5-(4-phenoxyphenyl)-4,5-dihydro-3H-1-thia-3,5,8-triazaacenaphthylene-2-carboxamide]
<6 | CC(=O)N1CCC[C@@H](NC(=O)c2sc3nccc4c3c2NC(=O)N4c2ccc(OC(C)C)cc2C)C1 [Example 936, (R)—N-(1-Acetylpiperidin-3-yl)-5-(4-isopropoxy-2-methylphenyl)-4-oxo-4,5-dihydro-3H-1-thia-3,5,8-triazaacenaphthylene-2-carboxamide]

Compound | BTK_I_binding pIC50
Cc1cc(Oc2ccccc2)ccc1N1C(=O)Nc2c(C(=O)N[C@H]3CCCNC3)sc3nccc1c23 [Example 912, (S)-5-(2-Methyl-4-phenoxyphenyl)-4-oxo-N-(piperidin-3-yl)-4,5-dihydro-3H-1-thia-3,5,8-triazaacenaphthylene-2-carboxamide] | 6.5
Cc1cc(Oc2ccccc2)ccc1N1C(=O)Nc2c(C(=O)N[C@H]3CCCN(C)C3)sc3nccc1c23 [Example 930, (S)-5-(2-methyl-4-phenoxyphenyl)-N-(1-methylpiperidin-3-yl)-4-oxo-4,5-dihydro-3H-1-thia-3,5,8-triazaacenaphthylene-2-carboxamide] | 6.0
